In ChEMBL document CHEMBL3885881, “DrugMatrix”:

Species: Rattus norvegicus
Experiment: DrugMatrix - Regimen: Daily Repeat
Assay type: toxicity, organism-based, Sprague-Dawley
Parameters: regimen Daily Repeat, gender Male, age 6-8 weeks
Settings: in vivo, iv, 5 mg/kg, dose level Low, vehicle 100 % SALINE; for ABSOLUTE BASOPHIL / ABSOLUTE EOSINOPHIL / ABSOLUTE LYMPHOCYTE / ABSOLUTE MONOCYTE / ABSOLUTE SEGMENTED NEUTROPHIL / BASOPHIL / EOSINOPHIL / ERYTHROCYTE COUNT / HEMATOCRIT / HEMOGLOBIN / LEUKOCYTE COUNT / LYMPHOCYTE / MEAN CORPUSCULAR HEMOGLOBIN / MEAN CORPUSCULAR HEMOGLOBIN CONCENTRATION / MEAN CORPUSCULAR VOLUME / MONOCYTE / NEUTROPHIL / NUCLEATED RED BLOOD CELLS / PLATELET COUNT: tissue Blood; for ALANINE AMINOTRANSFERASE / ALBUMIN / ALKALINE PHOSPHATASE / ASPARTATE AMINOTRANSFERASE / BLOOD UREA NITROGEN / CARBON DIOXIDE / CHLORIDE / CHOLESTEROL / CREATINE PHOSPHOKINASE / CREATININE / GLUCOSE / LACTATE DEHYDROGENASE / LIPASE / PHOSPHORUS / POTASSIUM / SODIUM / TOTAL BILIRUBIN / TOTAL PROTEIN / URIC ACID: tissue Plasma

CNC1(c2ccccc2Cl)CCCCC1=O (stereo unspecified) [KETAMINE]
ABSOLUTE BASOPHIL (72 h, time 3 day): 0 CELLS/uL
ABSOLUTE EOSINOPHIL (72 h, time 3 day): 51.33 CELLS/uL
ABSOLUTE LYMPHOCYTE (72 h, time 3 day): 14067.33 CELLS/uL
ABSOLUTE MONOCYTE (72 h, time 3 day): 102.67 CELLS/uL
ABSOLUTE SEGMENTED NEUTROPHIL (72 h, time 3 day): 1912 CELLS/uL
BASOPHIL (72 h, time 3 day): 0%
EOSINOPHIL (72 h, time 3 day): 0.33%
ERYTHROCYTE COUNT (72 h, time 3 day): 5.81 x10E6/uL
HEMATOCRIT (72 h, time 3 day): 36.67%
HEMOGLOBIN (72 h, time 3 day): 14.57 G/DL
LEUKOCYTE COUNT (72 h, time 3 day): 16.13 x10E3/uL
LYMPHOCYTE (72 h, time 3 day): 87%
MEAN CORPUSCULAR HEMOGLOBIN (72 h, time 3 day): 25.1 pg
MEAN CORPUSCULAR HEMOGLOBIN CONCENTRATION (72 h, time 3 day): 39.73 G/DL
MEAN CORPUSCULAR VOLUME (72 h, time 3 day): 63.13 fL
MONOCYTE (72 h, time 3 day): 0.67%
NEUTROPHIL (72 h, time 3 day): 12%
NUCLEATED RED BLOOD CELLS (72 h, time 3 day): 0 /100WBC
PLATELET COUNT (72 h, time 3 day): 1224 x10E3/uL
ALANINE AMINOTRANSFERASE (72 h, time 3 day): 65.67 u/L
ALBUMIN (72 h, time 3 day): 4.37 G/DL
ALKALINE PHOSPHATASE (72 h, time 3 day): 476.33 u/L
ASPARTATE AMINOTRANSFERASE (72 h, time 3 day): 112 u/L
BLOOD UREA NITROGEN (72 h, time 3 day): 16.67 mg/dL
CARBON DIOXIDE (72 h, time 3 day): 24.33 mmol/L
CHLORIDE (72 h, time 3 day): 102.33 MEQ/L
CHOLESTEROL (72 h, time 3 day): 77 mg/dL
CREATINE PHOSPHOKINASE (72 h, time 3 day): 659.67 u/L
CREATININE (72 h, time 3 day): 0.19 mg/dL
GLUCOSE (72 h, time 3 day): 151 mg/dL
LACTATE DEHYDROGENASE (72 h, time 3 day): 281 u/L
LIPASE (72 h, time 3 day): 8.67 u/L
PHOSPHORUS (72 h, time 3 day): 13.03 mg/dL
POTASSIUM (72 h, time 3 day): 6.82 MEQ/L
SODIUM (72 h, time 3 day): 147.17 MEQ/L
TOTAL BILIRUBIN (72 h, time 3 day): 0.2 mg/dL
TOTAL PROTEIN (72 h, time 3 day): 6.1 G/DL
URIC ACID (72 h, time 3 day): 1.77 mg/dL
ABSOLUTE BASOPHIL (120 h, time 5 day): 0 CELLS/uL
ABSOLUTE EOSINOPHIL (120 h, time 5 day): 0 CELLS/uL
ABSOLUTE LYMPHOCYTE (120 h, time 5 day): 13962.33 CELLS/uL
ABSOLUTE MONOCYTE (120 h, time 5 day): 431.67 CELLS/uL
ABSOLUTE SEGMENTED NEUTROPHIL (120 h, time 5 day): 1839.33 CELLS/uL
BASOPHIL (120 h, time 5 day): 0%
EOSINOPHIL (120 h, time 5 day): 0%
ERYTHROCYTE COUNT (120 h, time 5 day): 5.58 x10E6/uL
HEMATOCRIT (120 h, time 5 day): 35.2%
HEMOGLOBIN (120 h, time 5 day): 13.8 G/DL
LEUKOCYTE COUNT (120 h, time 5 day): 16.23 x10E3/uL
LYMPHOCYTE (120 h, time 5 day): 86%
MEAN CORPUSCULAR HEMOGLOBIN (120 h, time 5 day): 24.77 pg
MEAN CORPUSCULAR HEMOGLOBIN CONCENTRATION (120 h, time 5 day): 39.27 G/DL
MEAN CORPUSCULAR VOLUME (120 h, time 5 day): 63.1 fL
MONOCYTE (120 h, time 5 day): 2.67%
NEUTROPHIL (120 h, time 5 day): 11.33%
NUCLEATED RED BLOOD CELLS (120 h, time 5 day): 0 /100WBC
PLATELET COUNT (120 h, time 5 day): 1165.33 x10E3/uL
ALANINE AMINOTRANSFERASE (120 h, time 5 day): 62.33 u/L
ALBUMIN (120 h, time 5 day): 4 G/DL
ALKALINE PHOSPHATASE (120 h, time 5 day): 365.67 u/L
ASPARTATE AMINOTRANSFERASE (120 h, time 5 day): 75.67 u/L
BLOOD UREA NITROGEN (120 h, time 5 day): 16 mg/dL
CARBON DIOXIDE (120 h, time 5 day): 23.67 mmol/L
CHLORIDE (120 h, time 5 day): 103 MEQ/L
CHOLESTEROL (120 h, time 5 day): 71 mg/dL
CREATINE PHOSPHOKINASE (120 h, time 5 day): 194 u/L
CREATININE (120 h, time 5 day): 0.14 mg/dL
GLUCOSE (120 h, time 5 day): 158.33 mg/dL
LACTATE DEHYDROGENASE (120 h, time 5 day): 81 u/L
LIPASE (120 h, time 5 day): 8.33 u/L
PHOSPHORUS (120 h, time 5 day): 11.53 mg/dL
POTASSIUM (120 h, time 5 day): 6.9 MEQ/L
SODIUM (120 h, time 5 day): 144.5 MEQ/L
TOTAL BILIRUBIN (120 h, time 5 day): 0.2 mg/dL
TOTAL PROTEIN (120 h, time 5 day): 6.03 G/DL
URIC ACID (120 h, time 5 day): 1.43 mg/dL
